Paper PMC3920478, “Small molecule-mediated refolding and activation of myosin motor function” (eLife, 2014)
“Also recorded” adds a separate entry of the source.

Experiments:
[1] = target: T1, Dd myosin-2 ΔSH3 (lacks residues 33–79) (Dictyostelium discoideum, UniProt P08799, DEL33-79); test: Direct binding to truncated construct; conditions: construct lacks SH3-like β-barrel
T1 construct: Dd myosin-2 ΔSH3, a recombinant motor domain construct that lacks this subdomain; made in house

[2] = test system: Dd myosin-1B, -1C, -1D, -1E motor domains; test: Steady-state basal and actin-activated Mg2+-ATPase (NADH-coupled assay); format: biochemical, Dictyostelium discoideum
Experimental: Rabbit fast skeletal muscle heavy meromyosin (HMM) was prepared as described by [Margossian and Lowey (1982)]. Porcine β-cardiac myosin was prepared essentially as described by [Pant et al. (2009)] and [Jacques et al. (2008)] and further purified by gel filtration. S1 and HMM fragments were produced by proteolytic digestion of the full-length proteins with 0.05 mg/ml papain (10 min, 25°C) for S1 and with 0.1 mg/ml TLCK-treated α-chymotrypsin (15 min, 25°C) for HMM. Reactions were stopped with specific protease inhibitors for papain (10 µM E−64) and chymotrypsin (10 µM chymostatin, 1 mM benzamidine). Proteolytic fragments were further purified by actin-coprecipitation. Pellets were washed twice and myosin was extracted from the pellets using ATP containing buffer. Gel filtration was used to further increase purity of myosin S1 and HMM fragments. […]
Basal and actin-activated Mg^2+-ATPase activities were measured using the NADH-coupled assay described previously ([Furch et al., 1998]) adapted for higher throughput screens for a temperature controlled plate reader (Multiscan FC, Thermo Scientific, Waltham, MA) at 25°C. […]

[3] = target: T2, complex formed by the β-cardiac myosin motor domain with F-actin (Sus scrofa, UniProt P79293); test: Melting curve by differential static light scattering; conditions: 100 µM EMD 57033
T2 construct: Melting curves of the complex formed by the β-cardiac myosin motor domain with F-actin; from tissue; host or cells: porcine cardiac muscle (myosin)
Experimental: Circular dichroism and differential static light scattering experiments were performed to determine Tm.
Protein stability was assayed following protein aggregation associated with heat denaturation ([Senisterra et al., 2006]). Protein solutions were diluted to a concentration of 0.2 mg/ml in a buffer containing 5 mM KPi pH 7.5, 25 mM KCl and heated in steps of 0.6°C. Static light scattering was measured at each temperature step and the resulting transition curve was fitted by a Boltzmann function. The transition midpoint gives a measure for the aggregation temperature induced by protein denaturation.

β-cardiac myosin [4] = target: T3, β-cardiac myosin (Sus scrofa, UniProt P79293); test: Heat stress protection, storage and refolding of myosin; format: biochemical, Porcine; conditions: for Competence to bind nucleotide (mantATP amplitude) preserved: 25 μM EMD 57033
Experimental: The fraction of myosin that is able to bind mantATP drops to below 32% when the temperature is raised to 49°C for more than 5 min. Incubation for 10 min at 51°C removes the myosin completely and irreversibly from the soluble fraction. […] Moreover, based on the amplitude of the rise in mantATP fluorescence, the competence of β-cardiac myosin to bind nucleotide is preserved to more than 91% after 5-min incubation at 49°C and to approximately 82% after 10-min incubation at 49°C (Figure 4B). […] This view is supported by experiments that monitor the recovery of basal activity over a 2 hr period (Figure 4C). To obtain more detailed information about the kinetics of the EMD 57033-mediated refolding reaction, we performed three sets of experiments recording the time and concentration dependence of EMD 57033-mediated increases in the fraction of myosin molecules that are able to undergo nucleotide induced conformational changes, hydrolyze ATP, and produce movement in the in vitro motility assay.
Changes in intrinsic protein fluorescence are tightly linked to ATP binding and ATP-induced conformational changes in the myosin motor domain ([Batra and Manstein, 1999]). […] The dependence of the kobs values on the incubation time was best fit by a hyperbola (Figure 4E). […] The slope defines a value of 0.02 × 10^-3 μM^−1 s^−1 for the second order rate constant for the EMD 57033-mediated refolding reaction (Figure 4H).
Target sequence in this assay (P79293 1-778 limits assumed): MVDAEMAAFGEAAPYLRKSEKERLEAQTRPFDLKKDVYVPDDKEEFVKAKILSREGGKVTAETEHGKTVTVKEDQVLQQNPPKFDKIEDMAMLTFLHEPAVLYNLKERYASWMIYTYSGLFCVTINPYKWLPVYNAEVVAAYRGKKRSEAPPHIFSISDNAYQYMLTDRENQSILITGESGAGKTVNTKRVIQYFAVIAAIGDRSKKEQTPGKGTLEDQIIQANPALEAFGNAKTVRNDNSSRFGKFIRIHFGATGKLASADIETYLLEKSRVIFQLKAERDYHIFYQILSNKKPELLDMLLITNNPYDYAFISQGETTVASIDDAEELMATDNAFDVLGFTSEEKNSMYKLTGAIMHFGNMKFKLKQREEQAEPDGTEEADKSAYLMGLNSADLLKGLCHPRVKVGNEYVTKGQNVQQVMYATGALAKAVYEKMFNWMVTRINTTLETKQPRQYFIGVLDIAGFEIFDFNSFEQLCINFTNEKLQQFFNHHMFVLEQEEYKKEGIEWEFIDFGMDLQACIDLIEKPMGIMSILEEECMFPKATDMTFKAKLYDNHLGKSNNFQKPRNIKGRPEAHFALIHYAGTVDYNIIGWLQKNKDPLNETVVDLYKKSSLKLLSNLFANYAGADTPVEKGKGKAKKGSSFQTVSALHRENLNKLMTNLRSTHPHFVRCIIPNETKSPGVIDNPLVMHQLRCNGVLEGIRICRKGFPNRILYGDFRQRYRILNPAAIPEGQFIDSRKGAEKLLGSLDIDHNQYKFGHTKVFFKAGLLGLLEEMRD

β-cardiac myosin [5] = target: T3, β-cardiac myosin; test: Transient kinetics (stopped-flow) of the ATPase cycle; format: biochemical, Porcine; set-up: β-Cardiac myosin-2 (S1, full-length); from tissue; host or cells: porcine cardiac muscle
Excerpt: To gain a better understanding of its mechanism of action, we examined the effect of EMD 57033-binding on the kinetic activity of the myosin motor. […] Fast mixing of excess ATP with β-cardiac myosin results in an increase of the protein’s intrinsic tryptophan fluorescence. The kinetic model predicts the double exponential ‘behavior’ of the observed transients to be associated with two discrete processes (Figure 3C). The fast process corresponds to the binding of ATP to the active site. The rate of the slow process saturates at ATP concentrations above 100 µM and can be attributed to the ATP hydrolysis step ([Deacon et al., 2012]). […] Phosphate release is the rate-limiting step of the β-cardiac myosin actin-activated ATPase cycle. It can be monitored by the fluorescence increase that is associated with the much faster binding of phosphate to the A197C mutant of Escherichia coli phosphate binding protein, labeled at Cys197 with the thiol reactive coumarin dye MDCC ([Brune et al., 1994]) (Figure 3F). […] The resulting values for k+4 indicate a 1.7-fold increase in the presence of the small compound.
Stopped-flow experiments were performed using PiStar (Applied Photophysics, Leatherhead, UK) and Hi-Tech SF61 (TgK Scientific Limited, Bradford on Avon, UK) spectrophotometers at 20°C as described previously ([Taft et al., 2008]). Mant-nucleotides (Jena Bioscience, Germany) were excited at 365 nm and detected after passing through a KV 389 nm cut-off filter. Tryptophane fluorescence was excited at 297 nm and detected using a WG 320 nm cut-off filter. Long-time experiments were carried out using a shutter to avoid photo-bleaching. […] Phosphate release was measured using MDCC-PBP (N-[2-(1-maleimidyl)ethyl]-7-(diethylamino)coumarin-3-carboxamide fused to phosphate binding protein; obtained from Life Technologies, Carlsbad, CA) as described previously ([Brune et al., 1994]). Coumarin fluorescence was excited at 430 nm and detected using 455 nm cut-off-filter.
Target sequence in this assay (P79293 whole entry): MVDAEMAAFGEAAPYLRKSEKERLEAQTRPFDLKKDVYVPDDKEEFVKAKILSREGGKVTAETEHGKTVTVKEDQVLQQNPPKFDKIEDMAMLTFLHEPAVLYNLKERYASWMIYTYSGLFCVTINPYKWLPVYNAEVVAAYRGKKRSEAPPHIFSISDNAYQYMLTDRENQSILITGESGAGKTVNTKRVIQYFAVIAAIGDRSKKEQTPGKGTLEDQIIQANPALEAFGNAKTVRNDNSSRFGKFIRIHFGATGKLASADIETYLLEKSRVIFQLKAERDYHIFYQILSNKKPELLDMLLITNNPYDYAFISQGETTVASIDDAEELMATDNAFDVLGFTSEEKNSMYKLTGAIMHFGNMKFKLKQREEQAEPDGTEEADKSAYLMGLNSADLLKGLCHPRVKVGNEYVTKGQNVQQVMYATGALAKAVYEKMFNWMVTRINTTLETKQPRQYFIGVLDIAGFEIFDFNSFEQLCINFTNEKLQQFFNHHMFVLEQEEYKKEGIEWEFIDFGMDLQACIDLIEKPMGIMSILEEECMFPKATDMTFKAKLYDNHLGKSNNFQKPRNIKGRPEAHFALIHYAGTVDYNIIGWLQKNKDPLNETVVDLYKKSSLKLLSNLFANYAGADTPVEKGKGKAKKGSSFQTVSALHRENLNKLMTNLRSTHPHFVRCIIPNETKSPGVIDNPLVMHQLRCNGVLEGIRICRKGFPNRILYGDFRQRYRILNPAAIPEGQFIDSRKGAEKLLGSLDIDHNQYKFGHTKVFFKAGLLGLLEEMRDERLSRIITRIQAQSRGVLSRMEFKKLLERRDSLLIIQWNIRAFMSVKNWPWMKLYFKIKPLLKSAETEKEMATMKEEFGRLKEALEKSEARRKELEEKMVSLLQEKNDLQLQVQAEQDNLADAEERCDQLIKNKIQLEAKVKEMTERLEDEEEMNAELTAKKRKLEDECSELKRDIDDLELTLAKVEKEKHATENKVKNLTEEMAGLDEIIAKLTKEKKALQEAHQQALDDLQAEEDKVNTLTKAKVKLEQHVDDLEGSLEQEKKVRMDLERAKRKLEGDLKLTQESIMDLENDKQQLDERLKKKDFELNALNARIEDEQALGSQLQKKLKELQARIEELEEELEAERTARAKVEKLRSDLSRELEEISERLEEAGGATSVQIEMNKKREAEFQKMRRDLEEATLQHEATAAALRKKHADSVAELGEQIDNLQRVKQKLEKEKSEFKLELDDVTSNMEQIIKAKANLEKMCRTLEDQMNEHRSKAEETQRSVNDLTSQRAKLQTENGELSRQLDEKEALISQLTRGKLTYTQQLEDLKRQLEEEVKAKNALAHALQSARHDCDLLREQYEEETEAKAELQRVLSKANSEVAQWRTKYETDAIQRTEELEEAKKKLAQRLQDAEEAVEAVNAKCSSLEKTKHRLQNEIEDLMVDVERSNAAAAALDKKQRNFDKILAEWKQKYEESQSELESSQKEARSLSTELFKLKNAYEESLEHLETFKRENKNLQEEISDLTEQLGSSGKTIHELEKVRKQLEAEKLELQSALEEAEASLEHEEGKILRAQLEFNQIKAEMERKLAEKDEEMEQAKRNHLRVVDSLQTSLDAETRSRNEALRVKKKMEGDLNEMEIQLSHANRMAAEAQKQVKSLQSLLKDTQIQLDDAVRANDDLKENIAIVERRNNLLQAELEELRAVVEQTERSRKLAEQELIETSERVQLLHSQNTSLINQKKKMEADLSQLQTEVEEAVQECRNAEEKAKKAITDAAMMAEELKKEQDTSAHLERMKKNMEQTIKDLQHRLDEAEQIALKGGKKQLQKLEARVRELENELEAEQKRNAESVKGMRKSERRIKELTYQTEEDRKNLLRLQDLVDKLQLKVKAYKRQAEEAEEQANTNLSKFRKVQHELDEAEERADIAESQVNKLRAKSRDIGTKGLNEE

T2 sequence (P79293 1-843 limits assumed, one chain of several): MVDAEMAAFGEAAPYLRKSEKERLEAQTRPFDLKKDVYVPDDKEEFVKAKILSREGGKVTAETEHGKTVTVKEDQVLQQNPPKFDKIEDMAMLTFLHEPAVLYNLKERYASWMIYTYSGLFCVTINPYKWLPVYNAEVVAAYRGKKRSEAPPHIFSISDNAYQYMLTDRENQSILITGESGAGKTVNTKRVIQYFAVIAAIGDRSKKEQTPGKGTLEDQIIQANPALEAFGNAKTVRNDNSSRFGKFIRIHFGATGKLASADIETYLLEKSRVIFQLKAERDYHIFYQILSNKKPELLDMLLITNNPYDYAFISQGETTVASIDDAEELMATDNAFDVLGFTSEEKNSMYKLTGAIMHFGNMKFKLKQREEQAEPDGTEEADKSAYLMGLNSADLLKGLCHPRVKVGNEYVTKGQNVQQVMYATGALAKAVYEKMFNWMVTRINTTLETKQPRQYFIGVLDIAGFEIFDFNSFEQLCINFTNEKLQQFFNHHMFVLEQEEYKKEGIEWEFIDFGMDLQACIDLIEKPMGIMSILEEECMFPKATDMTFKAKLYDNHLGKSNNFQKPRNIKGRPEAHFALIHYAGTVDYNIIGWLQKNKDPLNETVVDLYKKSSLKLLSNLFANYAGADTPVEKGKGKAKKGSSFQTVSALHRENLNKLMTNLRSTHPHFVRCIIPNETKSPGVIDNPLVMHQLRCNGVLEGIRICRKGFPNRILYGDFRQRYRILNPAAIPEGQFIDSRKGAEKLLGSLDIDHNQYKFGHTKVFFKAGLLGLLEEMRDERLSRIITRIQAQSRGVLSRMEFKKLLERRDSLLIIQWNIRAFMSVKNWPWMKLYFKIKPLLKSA
T1 sequence (P08799 other isoform, or with tags, fused parts or gaps DEL33-79): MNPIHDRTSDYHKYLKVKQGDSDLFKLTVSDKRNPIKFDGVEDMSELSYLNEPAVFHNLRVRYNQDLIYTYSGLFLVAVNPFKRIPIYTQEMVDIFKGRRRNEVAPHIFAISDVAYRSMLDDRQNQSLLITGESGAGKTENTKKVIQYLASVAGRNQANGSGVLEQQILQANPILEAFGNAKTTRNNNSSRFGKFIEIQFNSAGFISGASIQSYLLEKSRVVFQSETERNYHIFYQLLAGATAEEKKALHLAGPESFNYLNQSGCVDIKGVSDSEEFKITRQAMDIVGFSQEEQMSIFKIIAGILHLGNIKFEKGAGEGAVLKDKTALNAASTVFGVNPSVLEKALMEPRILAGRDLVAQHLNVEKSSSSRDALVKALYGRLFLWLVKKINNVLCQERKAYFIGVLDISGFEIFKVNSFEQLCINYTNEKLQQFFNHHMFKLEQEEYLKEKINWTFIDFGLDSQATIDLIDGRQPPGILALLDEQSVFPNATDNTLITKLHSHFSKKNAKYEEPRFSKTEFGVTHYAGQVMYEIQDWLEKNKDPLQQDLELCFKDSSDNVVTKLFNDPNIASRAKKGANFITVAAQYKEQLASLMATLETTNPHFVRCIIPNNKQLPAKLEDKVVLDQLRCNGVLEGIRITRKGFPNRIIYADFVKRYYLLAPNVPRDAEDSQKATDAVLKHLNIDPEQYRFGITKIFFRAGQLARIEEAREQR

Q: What does the source list for `COc1ccc(C(=O)N2CCCc3cc(C4=NNC(=O)SC4C)ccc32)cc1OC` (stereo not shown) [EMD 57033]?
A: Direct binding [1]: neither binding; Normalized maximal ATPase activation (basal) [2]: no effect; Normalized maximal ATPase activation (with 30 µM actin) ([2]; 30 µM actin): no effect; Tm (mid-point of transition) [3]: 66.4 ± 3 °C; Shelf life of protein-functionalized surfaces (β-cardiac myosin [4]): from a couple of hours to several months; Shelf life of myosin at 4°C (β-cardiac myosin [4]; 25 µM EMD 57033): extends the shelf life; Competence to bind nucleotide (mantATP amplitude) preserved (β-cardiac myosin [4]; 5-min incubation at 49°C): more than 91%; Competence to bind nucleotide (mantATP amplitude) preserved (β-cardiac myosin [4]; 10-min incubation at 49°C): approximately 82%; Recovery of ability to bind mantATP after heat inactivation (β-cardiac myosin [4]; 10 min at 49°C, then 25 µM EMD 57033): gradually recovered; First order dissociation rate constant for EMD 57033 (y-intercept) (β-cardiac myosin [4]; heat-treated β-cardiac myosin): 0.00023 s⁻¹; Second order rate constant for the EMD 57033-mediated refolding reaction (krescue) (β-cardiac myosin [4]; heat-treated β-cardiac myosin, 10–100 μM EMD 57033): 2e-05 µM⁻¹ s⁻¹; Recovery of enzymatic activity of fully denatured myosin aggregates (β-cardiac myosin [4]; incubation for 6 hr on ice or at 20°C): no detectable recovery of enzymatic activity; Precipitation / solubility of myosin under heat stress (β-cardiac myosin [4]; preincubation with 25 μM EMD 57033, 10-min incubation): remained in the supernatant over the entire temperature range tested; also recorded: prevents precipitation; Effect on ADP-release step (k−D, k−AD) (β-cardiac myosin [5]): appears unaffected; k+4 (phosphate release) (β-cardiac myosin [5]; 25 µM EMD 57033, F-Actin 25 µM and 25 µM ATP, MDCC-PBP): 0.15 ± 0.01 s⁻¹; k+2 ∼Change (−fold), increase (β-cardiac myosin [5]; 25 µM EMD 57033 vs control): 3.8 fold; k+4 ∼Change (−fold), increase (β-cardiac myosin [5]; EMD 57033 vs control): 1.7 fold; Net change in the rate of ATP turnover, single-turnover mantATP experiment (β-cardiac myosin [5]; actin-activated β-cardiac myosin, 25 µM EMD 57033): approximately twofold net increase; k+2 (conformational change after ATP binding) (β-cardiac myosin [5]; in presence of 25 µM EMD 57033): 174 ± 7 s⁻¹; k+3 + k−3 (rate of ATP hydrolysis) (β-cardiac myosin [5]; in presence of 25 µM EMD 57033): 24.5 ± 1.9 s⁻¹; k−AD (ADP release, with actin) (β-cardiac myosin [5]; in presence of 25 µM EMD 57033): 26.9 ± 4 s⁻¹; k−D (ADP release) (β-cardiac myosin [5]; in presence of 25 µM EMD 57033): 0.16 ± 0.04 s⁻¹
